Legend:
[1] = system: BDNF promoter IV / BDNF expression; test: BDNF expression in mouse cortical neurons (RT-qPCR); assay type: cell-based
Method: (§1) FIGS. 3A-3E depict targeted demethylation of BDNF promoter IV by dCas9-Tet1 to activate BDNF in neurons. FIG. 3A provides a schematic representation of targeting BDNF promoter IV by dCas9-Tet1 (dC-T) with specific gRNAs to erase methylation and activate BDNF expression. […] Bars are mean t SD of three biological replicates. FIG. 3C provides representative confocal images for BDNF induction in FIG. 3B. Top panel: BDNF expression was induced by 50 mM KCl treatment for 6 hrs. […] Stained in red for MAP2 (top two panels) or Cherry (bottom two panels), green for BDNF, blue for DAPI and grey for dCas9. Scale bar: 50 um. FIG. 3D depicts bisulfite sequencing of neurons in FIG. 3C. […] Shown is the mean percentage±SD of two biological replicates.
FIGS. 11A-11L depict targeted demethylation of BDNF promoter IV by dCas9-Tet1 in neurons. […] PAM for each gRNA is highlighted by a red box. […] Note that cultured neurons were treated with AraC on DIV2 to halt cell division in glial cells and neural progenitors. […] FIG. 11C provides EDU labeling analysis for the mouse primary neurons over the course of KCl treatment for 24 hrs. Note that extremely few EDU positive cells were observed. Stained in red for EDU, green for MAP2 and DAPI for nuclei. Scale bar: 500 um. FIG. 11D Upper panel: provides quantification of neuronal density over the course of KCl treatment. The post-mitotic neuron density remains steadily around 4.5×10^4/cm2 over time. Bars represent mean±SD of three experimental replicates. Lower panel: provides quantification of the EDU positive cells over the course of KCl treatment. Less than 2% of the cells are EDU-positive over 24 hrs. Bars represent mean±SD of three experimental replicates. FIG. 11E provides confocal micrographs of BDNF induction by ectopic expression of dCas9-Tet1 and a set of 4 gRNAs targeting BDNF promoter IV. Stained in green for BDNF, magenta for MAP2, red for Cherry and blue for DAPI. Note that the lentiviral infection efficiency is close to 100% in these neurons. Scale bar: 50 um. […] Bars represent mean±SD of three experimental replicates. […] FIG. 11J depicts DIV3 mouse cortical neurons were treated with ABT (50 uM) for 6 hours and then treated with KCl (50 mM) for 6-hour before harvest for RT-qPCR analysis. Bars represent mean±SD of three experimental replicates. FIG. 11K depicts DIV3 mouse cortical neurons were treated with 2-Hydroxyglutarate (10 mM) for 2 hours and then treated with KCl (50 mM) for 6-hour before harvest for RT-qPCR analysis. Bars represent mean±SD of three experimental replicates. FIG. 11L depicts DIV3 mouse cortical neurons derived from wild-type or Tet1 knockout E17.5 embryos were subject to time course KCl treatment experiments (6, 9 and 12 h). Bars represent mean±SD of three experimental replicates.
DNA replication-independent active demethylation has been proposed to operate in post-mitotic neurons (Guo et al., 2011; Martinowich et al., 2003). To test whether active demethylation can be induced in post-mitotic neurons, we applied the dCas9-Tet1 system to study the regulation of the BDNF gene. BDNF expression can be induced by neuronal activity accompanied by demethylation of its promoter IV (Chen et al., 2003; Martinowich et al., 2003). We designed 4 gRNAs targeting 11 CpGs in BDNF promoter IV (FIG. 11A) to determine whether dCas9-Tet1 can activate BDNF by inducing demethylation of this promoter (FIG. 3A). Mouse cortical neurons were isolated from E17.5 embryos and cultured for two days in vitro (DIV2) following a well-established experimental procedure for producing primary neuronal culture (Ebert et al., 2013). […] Neurons at day 3 in culture (DIV3) were infected with lentiviral vectors expressing dCas9-Tet1 with or without the 4 gRNAs at almost 100% transduction efficiency (FIG. 11E). At 48-hour post infection some of the cultures were treated with KCl to induce neuronal activity. […] We performed bisulfite sequencing to examine the methylation state of BDNF promoter IV. […]

[2] = system: C3H10T1/2 mouse embryonic fibroblast cells; test: Fibroblast-to-myoblast conversion assay; assay type: cell-based; conditions: for fraction of mock C3H10T1/2 cells expressing MyoD: after 5-Aza treatment (1 uM, 24-hour)
Text: FIGS. 4A-4H depict targeted demethylation of the MyoD distal enhancer by dCas9-Tet1 to facilitate conversion of fibroblasts to myoblasts. FIG. 4A provides a schematic representation of targeting the MyoD distal enhancer (DE) region in DMR-5 by dCas9-Tet1 (dC-T) with specific gRNAs. […] Cherry positive cells were FACS sorted for RT-qPCR analysis. Bars represent mean±SD of three experimental replicates. FIG. 4C bisulfite sequencing of cells in FIG. 4B. […] Shown is the mean percentage±SD of two biological replicates. […] C3H10T1/2 cells were plated as 1×10^4 cells per well in 6-well plate, and then infected with lentiviruses expressing dC-T and gRNAs targeting DMR-5, or a catalytic dead form of Tet1 (dC-dT) with target gRNAs. 24-hour post infection, cells were treated with vehicle control (HEPES buffer) or 5-Azacytidine (1 uM) for 24-hour, and then harvested after 14 days for immunofluorescence staining. Stained in green for MyoD, magenta for MHC and blue for DAPI. Scale bar: 200 um. FIG. 4F provides quantification of MyoD positive cell ratio 14-day post infection with lentiviruses expressing dC-T alone, dC-T with gRNAs targeting DMR-5, and dC-dT with the target gRNAs. […] FIG. 4H provides quantification of myotube density in MHC positive clusters with more than 2 or 5 nuclei at 14-days after infection. […] Data are quantified from 3-5 representative images for F-H. Bars represent mean±SD.
FIGS. 12A-12J depict targeted demethylation of the MyoD DMR-5 by dCas9-Tet1 and conversion of fibroblasts to myoblasts. […] PAM for each sgRNA is highlighted by a red box. FIG. 12B provides experimental scheme of the fibroblast-to-myoblast conversion assay. Briefly, C3H10T1/2 mouse embryonic fibroblast cells were plated as 1×10^4 cells per well in 6-well plate, and then infected with lentiviruses expressing dCas9-Tet1 and target gRNAs. 24-hour post infection, cells were optionally treated with 5-Azacytidine (1 uM) for 24-hour (labeled in red), and harvested for immunofluorescence staining at different time points (day-14, -16 and -25, labeled in dark blue) with medium change every other day. Scale bar: 100 um. […] Stained in green for MHC, red for MyoD and blue for DAPI. Scale bar: 200 um. FIG. 12D depicts a fraction of mock C3H10T1/2 cells expressing MyoD at different times after 5-Aza treatment. The fraction of cells expressing MyoD increases from around 6% at day 14 to around 13% at day 16 and reached around 20% at day 25. Bars represent mean±SD. FIG. 12E provides number of nuclei in MHC+ cell clusters (grouped as 1-2 and >2 nuclei per MHC+ cluster). […] Bars represent mean±SD. Data was quantified from 3-5 representative images for each group in FIG. 12D and FIG. 12E. […] Bars represent mean±SD of three experimental replicates. FIG. 12G provides representative images for C3H10T1/2 cells 16 days after infection with lentiviruses expressing dC-T and gRNAs targeting DMR-5 (MyoD distal enhancer) in a fibroblast-to-myoblast conversion assay as described in FIG. 12B. […] Stained in magenta for MHC, green for MyoD and blue for DAPI. Scale bar: 200 um. FIG. 12H depicts a fraction of MyoD positive cells 16 days after infection with lentiviruses expressing dC-T alone or with gRNAs targeting DMR-5. FIG. 12I show a number of nuclei in MHC+ cell clusters (grouped as 2-5, 6-10, 11-20 and >20 nuclei per MHC+ cluster) 16 days after infection. […] Data are quantified from 3-5 representative images for FIGS. 12H-12J. Bars represent mean±SD.
We then investigated whether targeted demethylation of DMR-5 would synergize with 5-Aza treatment to induce myotube formation (FIG. 12B). To follow the process of myotube formation after 5-Aza treatment, a time-course experiment was performed. Multi-nucleated myotube (MHC-positive) with heterogeneous sizes began to form 14 days post treatment, and both MyoD-positive cell ratio and myotube density and size then increased up to day-25 (FIGS. 12C-12E). […]

BDNF promoter IV [3] = test: Bisulfite sequencing of BDNF promoter IV in mouse cortical neurons; assay type: cell-based; conditions: KCl 50 mM, 6 hours
Method: as §1
DNA replication-independent active demethylation has been proposed to operate in post-mitotic neurons (Guo et al., 2011; Martinowich et al., 2003). To test whether active demethylation can be induced in post-mitotic neurons, we applied the dCas9-Tet1 system to study the regulation of the BDNF gene. BDNF expression can be induced by neuronal activity accompanied by demethylation of its promoter IV (Chen et al., 2003; Martinowich et al., 2003). We designed 4 gRNAs targeting 11 CpGs in BDNF promoter IV (FIG. 11A) to determine whether dCas9-Tet1 can activate BDNF by inducing demethylation of this promoter (FIG. 3A). […]

BDNF promoter IV [4] = test: Tet-assisted bisulfite sequencing (TAB-seq) of 5-hmC in BDNF promoter IV; assay type: cell-based, mouse; conditions: KCl treatment for 6 hours
Method: FIGS. 11A-11L depict targeted demethylation of BDNF promoter IV by dCas9-Tet1 in neurons. […] PAM for each gRNA is highlighted by a red box. […] Note that cultured neurons were treated with AraC on DIV2 to halt cell division in glial cells and neural progenitors. […] FIG. 11C provides EDU labeling analysis for the mouse primary neurons over the course of KCl treatment for 24 hrs. Note that extremely few EDU positive cells were observed. Stained in red for EDU, green for MAP2 and DAPI for nuclei. Scale bar: 500 um. FIG. 11D Upper panel: provides quantification of neuronal density over the course of KCl treatment. The post-mitotic neuron density remains steadily around 4.5×10^4/cm2 over time. Bars represent mean±SD of three experimental replicates. Lower panel: provides quantification of the EDU positive cells over the course of KCl treatment. Less than 2% of the cells are EDU-positive over 24 hrs. Bars represent mean±SD of three experimental replicates. FIG. 11E provides confocal micrographs of BDNF induction by ectopic expression of dCas9-Tet1 and a set of 4 gRNAs targeting BDNF promoter IV. Stained in green for BDNF, magenta for MAP2, red for Cherry and blue for DAPI. […]
Because post-mitotic neurons were used for these experiments, loss of methylation was likely due to active demethylation. […] Similarly, 5-hmC was also detected after KCl treatment (FIG. 11I). […]

O=C(O)CCC(O)C(=O)O (stereo not drawn) [2-hydroxygluterate, 2-Hydroxyglutarate, reference compound]
effect on induction of BDNF expression by KCl treatment ([1]; 10 mM for 2 hours, then KCl 50 mM for 6-hour): completely abolished the induction of BDNF expression by KCl treatment

Nc1ncn([C@@H]2O[C@H](CO)[C@@H](O)[C@H]2O)c(=O)n1 [5-Aza, 5-Azacytidine]
MHC+ myotube formation ([2]; 5-Aza (1 uM, 24-hour), 14 days after infection): induces MHC+ myotube formation | fraction of mock C3H10T1/2 cells expressing MyoD ([2]; day 14): around 6% | fraction of mock C3H10T1/2 cells expressing MyoD ([2]; day 16): around 13% | fraction of mock C3H10T1/2 cells expressing MyoD ([2]; day 25): around 20%

C[C@]1(c2nc3c(C(N)=O)cccc3[nH]2)CCCN1 [ABT-888, reference compound]
effect on activation of BDNF by KCl treatment ([1]; 50 uM for 6 hours, then KCl 50 mM for 6-hour): reduced the activation of BDNF by KCl treatment

[Cl-].[K+] [KCl, reference compound]
BDNF expression ([1]; KCl 50 mM treatment of DIV3 neurons): induced BDNF expression | methylation of BDNF promoter IV CpGs (positions relative to transcription start site) (BDNF promoter IV [3]): induced demethylation of CpGs at positions of −148, −66 and 19 | 5-hmC level in BDNF promoter IV (BDNF promoter IV [4]): detected

Source: patent publication US12060588B2, “Methods of editing DNA methylation” (Whitehead Institute for Biomedical Research, priority 2016, dated 2024)
